In patent publication US11361527B2, “Automated robotic microscopy systems” (The J. David Gladstone Institutes, a testamentary trust …, priority 2012, dated 2022):

System: primary neurons transfected with TDP43 M337V
Assay: Automated neurite quantification in primary neurons transfected with TDP43 M337V (ALS disease model), robotic microscope
Assay type: cell-based
Settings: fluphenazine 0.1 μM vs vehicle, images every 24 hours, FIG. 24
Experimental: Primary neurons were transfected with GFP as a control or TDP43 M337V. The disease model neurons were treated with fluphenazine (0.1 μM) or vehicle to determine whether autophagy could rescue TDP43 M337V mediated loss of neurites. Images were collected every 24 hours with the robotic microscope and neurites were quantified using automated analysis as described herein.
Further, counting the number of neurites in neuronal cultures can be an early and sensitive measure of cell health. Neurite retraction often precedes neuron death when cells are coping with neurodegenerative disease causing proteins. One way to detect neurites with low computational complexity is to quantify the total area of neurites in an image. A line detector may be used to identify pixels in an image that have local structures that represent a line. The determination is based on the second order pixel data (Hessian matrix), which is a measure of local intensity curvature. In certain aspects, such an approach uses the following parameters:
The output of the line detector is a binary image with pixels that are part of lines having a value of 1 and all other pixels having a value of 0. The pixels of this binary image are then summed to quantify the total area of neurites. […] Images were collected every 24 hours with the robotic microscope and neurites were quantified using automated analysis as described above.

OCCN1CCN(CCCN2c3ccccc3Sc3ccc(C(F)(F)F)cc32)CC1 [fluphenazine]
neurite degeneration induced by TDP43 M337V (loss of neurites, automated neurite quantification): mitigates neurite degeneration
